Series [1] relates to Colorectal cancer cells. Briefly: ChIP and message of Wnt/beta-catenin target genes in colorectal cancer cells. It is filed as cell-based. As for the experimental part: The effects of CBP/catenin antagonism on Wnt target genes are highly promoter specific. Colorectal cancer cells were treated with ICG-001, thereby disrupting the CBP/catenin interaction, and then examined for coactivator occupancy at the promoter regions of several Wnt/beta-catenin regulated target genes using a Chromatin Immuno-precipitation Assay (ChIP), a technique that allows one to determine what proteins are associated with a particular promoter. […] Furthermore, there are other Wnt/catenin-regulated genes that selectively utilize p300 for transcriptional coactivation. An interesting example of this differential coactivator usage concerns the expression of the gene EphB2, a known Wnt/TCF/beta-catenin target gene. As almost 90% of colon cancers have high aberrant Wnt/TCF/beta-catenin activation, it would follow that EpHB2 expression would be increased with colon cancer disease progression. This, however, is not the case as EphB2 expression is generally lost in late stage colorectal cancers (34). Furthermore, disruption of EphB2 in the Min mouse, which carries a defective APC tumor suppressor gene, results in highly invasive carcinomas as opposed to the normal adenomas.

The subject of series [2] is Adenosine Receptor A2B (ADORA2B). Briefly: Gene expression array of cells in culture. The note with it: colonic epithelium, 10 uM. It is filed as cell-based.
Series [3] concerns PC-12 cells with mutant PS-1 (L286V). Put plainly: Neuronal differentiation of PC-12 cells with FAD mutant PS-1 (L286V). It is filed as cell-based. From the text: However, the effects of PS-1 mutations on the stability of beta-catenin, TCF/beta-catenin signaling, and thereby its potential role in AD remain controversial. Applicant has shown that introduction of a FAD mutant PS-1 (L286V) into PC-12 cells causes increased TCF/beta-catenin signaling, leading to the inhibition of neurite outgrowth. […] In the CNS, EpB2 expression is associated with axonal guidance (16). […] In initial in vivo studies, applicant treated penta-transgenic mice that over express mutant APP (695) (Swedish (K670N, M671L), Florida (I716V) and London (V717I)) and PS-1 (M146L and L286V) mutations with ICG-001 for 2 months (months 2-4). These mice normally develop massive cerebral deposition of Aβ starting at 6 weeks of age.

Series [4] concerns human skin (surgical waste). Briefly: Ex vivo human skin assay, qRT-PCR. It is filed as cell-based. To be noted: 24 hrs; 5 uM ICG-001, 5 uM methylated ICG-001, 1 ug/ml RA. As for the experimental part: Methods. Ex Vivo human skin assay culture conditions were based upon a paper by Varani J et al Experimental and Molecular Pathology, 2004.
Briefly, human skin (surgical waste from plastic surgery procedures) was obtained and the subcutaneous layer of fat was trimmed manually with a scalpel. The skin was then cut into small fragments about 2 mm square and placed in 6 well plates. 1 ml of keratinocyte culture medium (Gibco 10724-011) with 1% P/S (penstrep antibiotic) was added to each well. The epidermis, bathed in media was placed facing up. On the next day (overnight culture in the media above), the skin fragments were transferred to fresh wells that contained either 5 uM ICG-001, 5-uM methylated ICG-001 or 1 ug/ml of retinoic acid (RA). After 24 hrs, skin samples in culture were removed for RNA isolation and qRT-PCR analysis of genes of interest (e.g., elastin (a gene involved in skin appearance and pliability (e.g., wrinkling)) and aquaporin 1, which is involved with hydration.
(In general: Quantitative PCR measures a nucleic acid by following its amplification.)

For series [5], the target named is CBP/beta-catenin interaction (Homo sapiens, UniProt Q92793). Briefly: Disruption of the CBP/beta-catenin interaction. It is filed as biochemical. From the text:
Applicant next mapped the binding domains between CBP and beta-catenin, as well as between p300 and beta-catenin. The C-terminal trans-activating region of beta-catenin (647-781) interacted with the same 1-111 amino acids of both CBP and p300 (23). However, only the interaction between CBP and beta-catenin was disrupted by ICG-001, and not the p300/beta-catenin interaction.

The test system of series [6] is Colorectal cancer cells. Briefly: Survivin expression and cytotoxicity in colorectal cancer cells. It is filed as cell-based. From the text:
Cancer. The importance of Wnt signaling in colorectal cancer is undisputed. Applicant's investigation on the therapeutic utility of ICG-001 therefore quite naturally began with colon cancer.

Another series relates to ER alpha receptor. Put plainly: ER alpha re-expression in triple negative breast cancer. It is filed as cell-based.

These results are taken from US10092568B2, “CBP/Catenin antagonists for enhancing asymmetric division of somatic stem cells” (University of Southern California, priority 2010, dated 2018).

Chain of CBP/beta-catenin interaction (Q92793 whole entry, the tested form may be a part): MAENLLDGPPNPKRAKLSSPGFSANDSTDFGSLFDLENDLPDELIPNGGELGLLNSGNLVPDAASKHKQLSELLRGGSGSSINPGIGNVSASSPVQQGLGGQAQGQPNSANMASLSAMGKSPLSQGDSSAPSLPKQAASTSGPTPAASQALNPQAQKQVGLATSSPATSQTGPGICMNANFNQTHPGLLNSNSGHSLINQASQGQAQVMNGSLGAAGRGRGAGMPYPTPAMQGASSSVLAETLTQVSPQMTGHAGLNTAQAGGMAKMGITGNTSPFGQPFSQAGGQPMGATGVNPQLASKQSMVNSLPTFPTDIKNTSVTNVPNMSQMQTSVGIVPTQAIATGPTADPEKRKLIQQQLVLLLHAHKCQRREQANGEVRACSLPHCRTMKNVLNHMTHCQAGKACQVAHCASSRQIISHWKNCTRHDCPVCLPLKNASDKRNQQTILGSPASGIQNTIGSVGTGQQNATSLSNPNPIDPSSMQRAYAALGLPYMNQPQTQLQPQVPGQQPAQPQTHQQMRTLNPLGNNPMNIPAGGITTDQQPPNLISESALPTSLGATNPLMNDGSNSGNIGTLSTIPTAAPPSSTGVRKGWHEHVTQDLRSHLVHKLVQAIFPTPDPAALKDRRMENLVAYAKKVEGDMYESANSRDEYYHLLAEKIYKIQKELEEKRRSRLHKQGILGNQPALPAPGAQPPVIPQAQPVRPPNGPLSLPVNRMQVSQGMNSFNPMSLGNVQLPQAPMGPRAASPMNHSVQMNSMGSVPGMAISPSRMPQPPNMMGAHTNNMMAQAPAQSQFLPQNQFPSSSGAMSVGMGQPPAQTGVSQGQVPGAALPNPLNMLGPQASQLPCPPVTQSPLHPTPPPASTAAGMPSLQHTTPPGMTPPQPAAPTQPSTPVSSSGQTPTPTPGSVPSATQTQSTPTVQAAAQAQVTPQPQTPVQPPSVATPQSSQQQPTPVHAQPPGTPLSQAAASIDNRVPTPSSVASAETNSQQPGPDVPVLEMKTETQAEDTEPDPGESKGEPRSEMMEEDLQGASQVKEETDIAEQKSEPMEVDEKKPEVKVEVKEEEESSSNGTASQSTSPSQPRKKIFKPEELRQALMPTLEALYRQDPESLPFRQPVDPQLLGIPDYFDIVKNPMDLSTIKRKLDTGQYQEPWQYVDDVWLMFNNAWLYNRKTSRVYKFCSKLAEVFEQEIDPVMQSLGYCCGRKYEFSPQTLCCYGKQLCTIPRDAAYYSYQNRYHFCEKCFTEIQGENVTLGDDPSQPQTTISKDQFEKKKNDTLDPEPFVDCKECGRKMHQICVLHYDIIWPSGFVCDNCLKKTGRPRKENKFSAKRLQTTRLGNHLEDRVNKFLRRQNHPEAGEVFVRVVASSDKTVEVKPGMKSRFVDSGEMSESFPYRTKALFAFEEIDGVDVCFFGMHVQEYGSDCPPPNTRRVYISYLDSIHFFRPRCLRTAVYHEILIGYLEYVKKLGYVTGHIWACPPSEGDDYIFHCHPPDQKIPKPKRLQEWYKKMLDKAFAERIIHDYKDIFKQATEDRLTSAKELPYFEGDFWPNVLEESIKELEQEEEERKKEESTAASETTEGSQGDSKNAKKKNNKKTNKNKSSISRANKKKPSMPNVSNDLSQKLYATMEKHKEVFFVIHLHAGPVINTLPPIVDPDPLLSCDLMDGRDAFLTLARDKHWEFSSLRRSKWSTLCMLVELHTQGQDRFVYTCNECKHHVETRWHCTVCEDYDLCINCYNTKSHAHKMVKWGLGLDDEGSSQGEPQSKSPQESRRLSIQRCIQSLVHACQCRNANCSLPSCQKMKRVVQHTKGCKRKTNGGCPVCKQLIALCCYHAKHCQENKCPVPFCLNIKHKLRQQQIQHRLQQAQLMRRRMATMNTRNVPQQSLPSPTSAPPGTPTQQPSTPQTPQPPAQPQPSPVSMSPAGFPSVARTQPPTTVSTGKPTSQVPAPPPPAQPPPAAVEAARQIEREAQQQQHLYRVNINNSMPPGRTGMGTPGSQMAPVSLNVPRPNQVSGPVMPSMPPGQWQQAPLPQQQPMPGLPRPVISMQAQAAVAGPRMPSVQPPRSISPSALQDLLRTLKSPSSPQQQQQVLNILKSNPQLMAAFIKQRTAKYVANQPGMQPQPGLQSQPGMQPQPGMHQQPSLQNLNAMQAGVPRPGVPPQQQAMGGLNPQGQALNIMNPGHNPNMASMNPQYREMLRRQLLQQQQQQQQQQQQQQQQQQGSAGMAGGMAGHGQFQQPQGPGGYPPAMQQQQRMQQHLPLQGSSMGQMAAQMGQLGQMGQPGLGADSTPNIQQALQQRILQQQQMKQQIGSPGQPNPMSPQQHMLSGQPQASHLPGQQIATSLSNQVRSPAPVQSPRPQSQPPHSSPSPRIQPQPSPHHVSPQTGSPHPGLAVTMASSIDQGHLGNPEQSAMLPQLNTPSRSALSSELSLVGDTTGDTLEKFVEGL

For `O=C1[C@H](Cc2ccc(O)cc2)N2C(=O)CCN(C(=O)NCc3ccccc3)[C@H]2CN1Cc1cccc2ccccc12` [ICG-001], the “expression of EphB2” value in the series with Colorectal cancer cells [1] (colon cancer cells) is given as “increasing the expression”. For the same molecule, in the series on Colorectal cancer cells [1] (colorectal cancer cells), the c-myc message result is “slight increase in message”, the “cyclin D1 message” value is on record as “decrease in message” and the survivin message result is on record as “decreased message”. For the same molecule, the “increase of expression of adenosine receptors (ADORA2B)” value in series [2] is around 10 ×. For the same molecule, in series [3], the EpB2 expression result is “again increased”; the “neuronal differentiation and neurite outgrowth” value is “rescues the defects”. In addition, the “expression of GAP43” value in series [3] (NGF-induced differentiation) is reported as “dramatically increased”. In series [4], the “expression of aquaporin 1” value is “increase” and the expression of elastin result is listed as “increase”. Further, the “interaction between CBP and beta-catenin” value in series [5] is listed as “disrupted”. Also, in the series with Colorectal cancer cells [6], the survivin expression entry is “down-regulated”. Moreover, the cytotoxicity result in the series on Colorectal cancer cells [6] (colorectal cancer cells versus normal colonic epithelial cells) is on record as “selective cytotoxicity”. Besides, the “expression of the ER alpha receptor” value with ER alpha receptor is reported as “re-expression”.
